Reference: US8440825B2, “Fumaric acid salt of varenicline” (Medichem S.A., priority 2008, dated 2013)
Structures can show the parent of a compound that is named as a salt.

Columns and labels:
[1] = Solubility in water of varenicline salts; format: physicochemical
[2] = Stability studies of varenicline crystalline salts (one year storage, HPLC and XRD); format: physicochemical; settings: for Purity (HPLC) % 1 year later: after one year at room temperature; for Purity (HPLC) % 1 year later / Purity (HPLC) % initial / XRD result 1 year later: normal pressure, ambient atmosphere; for XRD result Initial: initial polymorphic form, before storage; for Purity (HPLC) % initial: before storage at room temperature; for Stability in terms of chemical purity and polymorphic form (in words): after one year of storage; for XRD result 1 year later: polymorphic form after one year at room temperature
Experimental: The varenicline crystalline salts were stored under standard conditions (i.e. room temperature, normal pressure, ambient atmosphere). The samples were analyzed after one year by HPLC and XRD.

| Compound | Solubility in water [1] [mg/mL] | Purity (HPLC) % 1 year later [2] [%] | XRD result Initial [2] | Purity (HPLC) % initial [2] [%] | XRD result 1 year later [2] | other results |
| --- | --- | --- | --- | --- | --- | --- |
| varenicline oxalate [Example 12] | >20 | 99.72 | Form I | 99.91 | – | – |
| O=C(O)CCC(=O)C(=O)O.c1cnc2cc3c(cc2n1)C1CNCC3C1 [Example 6, varenicline α-ketoglutarate] | – | 98.45 | Form I | 99.71 | – | – |
| varenicline L-malate [Example 7] | >20 | – | – | – | – | Solubility in water (in words) [1]: highly soluble; Purity (HPLC) % 1 year later ([2]; listed as Malate Form I): 99.47%; Stability in terms of chemical purity and polymorphic form (in words) ([2]; listed as varenicline L-malate Form I): stable in terms of chemical purity; XRD result Initial ([2]; listed as Malate Form I): Form I; Purity (HPLC) % initial ([2]; listed as Malate Form I): 99.95% |
| O=C(O)CCCC(=O)O.c1cnc2cc3c(cc2n1)C1CNCC3C1 [Example 3, varenicline glutarate] | – | 97.90 | Form I | 98.77 | – | – |
| c1cnc2cc3c(cc2n1)[C@@H]1CNC[C@H]3C1 [Example 5, varenicline hydrochloride] | – | – | – | – | – | solubility [1]: > 20 mg/mL |
| varenicline S-2-pyrrolidinon-5-carboxylate [Example 14] | – | 99.83 | Form I | 99.99 | Form I | Stability in terms of chemical purity and polymorphic form (in words) [2]: highly stable in terms of chemical purity and in terms of polymorphic form |
| varenicline L-malate [Malate Form II] | – | 99.66 | Form II | 99.94 | Form II | Stability in terms of chemical purity and polymorphic form (in words) ([2]; listed as varenicline L-malate Form II): highly stable in terms of chemical purity and of polymorphic form |
| O=C(O)CC(=O)O.c1cnc2cc3c(cc2n1)C1CNCC3C1 [Example 9, varenicline malonate] | – | 99.45 | Form I | 99.91 | – | – |
| varenicline glycolate [Example 4] | – | 99.57 | Form I | 99.95 | – | – |
| varenicline phosphate [Phosphate Form II] | – | 99.93 | Form II | 99.89 | Form II | – |
| varenicline phosphate [Example 13] | >20 | – | – | – | – | Solubility in water (in words) [1]: highly soluble; Purity (HPLC) % 1 year later ([2]; listed as Phosphate Form I): 99.89%; Stability in terms of chemical purity and polymorphic form (in words) [2]: highly stable in terms of chemical purity and in terms of polymorphic form; XRD result Initial ([2]; listed as Phosphate Form I): Form I; Purity (HPLC) % initial ([2]; listed as Phosphate Form I): 100%; XRD result 1 year later ([2]; listed as Phosphate Form I): Form I |
| varenicline succinate [Example 15] | >20 | – | – | – | – | – |
| O=C(O)CCCCC(=O)O.c1cnc2cc3c(cc2n1)C1CNCC3C1.c1cnc2cc3c(cc2n1)C1CNCC3C1 [Example 1, varenicline hemi-adipate] | – | 99.77 | Form I | 99.89 | Form I | Stability in terms of chemical purity and polymorphic form (in words) [2]: highly stable in terms of chemical purity and of polymorphic form |
| varenicline galactarate [Example 16] | >20 | 99.71 | Form I | 99.91 | Form I | Solubility in water (in words) [1]: highly soluble; Stability in terms of chemical purity and polymorphic form (in words) [2]: highly stable in terms of chemical purity and of polymorphic form |
| varenicline maleate [Example 8] | >20 | 99.90 | Form I | 100 | Form I | Solubility in water (in words) [1]: highly soluble; Stability in terms of chemical purity and polymorphic form (in words) [2]: highly stable in terms of chemical purity and of polymorphic form |
| CC(O)C(=O)O.c1cnc2cc3c(cc2n1)C1CNCC3C1 (racemic) [Example 17, varenicline DL-lactate] | – | 98.48 | Form I | 98.98 | – | – |
| c1cnc2cc3c(cc2n1)[C@@H]1CNC[C@H]3C1 [Hydrochloride, varenicline hydrochloride, reference compound] | – | 99.68 | Form II | 99.91 | Forms II + III | – |
| varenicline di-mesylate [Example 11] | >20 | 99.28 | Form I | 99.99 | – | – |
| O=S(=O)(O)CCS(=O)(=O)O.c1cnc2cc3c(cc2n1)C1CNCC3C1.c1cnc2cc3c(cc2n1)C1CNCC3C1 [Example 18, Varenicline Hemi-1,2-Ethane Disulfonate] | – | 99.36 | Form I | 99.97 | – | – |
| varenicline fumarate [Example 2] | >20 | 99.76 | Form I | 99.84 | Form I | Solubility in water (in words) [1]: highly soluble; Stability in terms of chemical purity and polymorphic form (in words) [2]: highly stable in terms of chemical purity and of polymorphic form |
| O=C(O)C(O)c1ccccc1.c1cnc2cc3c(cc2n1)C1CNCC3C1 (racemic) [Example 10, varenicline DL-mandelate] | – | 95.55 | Form I | 99.93 | – | – |
